In ChEMBL document CHEMBL4825694 (Eur J Med Chem, 2021):

Legend:
[1] = target: T1, Peroxisome proliferator-activated receptor gamma (Homo sapiens, UniProt P37231); experiment: Partial agonist activity at GAL4 DBD-fused PPARgamma LBD (unknown origin) expressed in pG5 luc and pBIND transfected HEK293T cells assessed as transcriptional activation incubated for 12 hrs by fluorescence based luciferase assay
T1 sequence (P37231 whole entry): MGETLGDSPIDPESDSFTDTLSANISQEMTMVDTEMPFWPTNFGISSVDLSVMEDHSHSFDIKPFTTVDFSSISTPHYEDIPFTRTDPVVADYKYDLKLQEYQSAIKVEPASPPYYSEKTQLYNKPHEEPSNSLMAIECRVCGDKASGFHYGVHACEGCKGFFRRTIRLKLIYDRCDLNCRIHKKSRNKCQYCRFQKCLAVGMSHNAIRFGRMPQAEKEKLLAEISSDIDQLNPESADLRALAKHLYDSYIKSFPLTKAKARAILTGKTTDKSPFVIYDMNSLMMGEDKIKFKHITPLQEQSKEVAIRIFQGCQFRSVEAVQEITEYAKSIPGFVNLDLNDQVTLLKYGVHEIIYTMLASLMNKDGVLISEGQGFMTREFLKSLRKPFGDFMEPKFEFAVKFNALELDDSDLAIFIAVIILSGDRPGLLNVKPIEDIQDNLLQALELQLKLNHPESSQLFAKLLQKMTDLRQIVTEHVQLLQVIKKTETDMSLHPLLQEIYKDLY

[2] = target: T1, Peroxisome proliferator-activated receptor gamma; experiment: Binding affinity to GAL4-DBD-fused PPARgamma ligand binding domain (unknown origin) expressed in HEK293T cells by spectra-fluorophotometry analysis
[3] = target: T2, Prostaglandin G/H synthase 2 (Homo sapiens, UniProt P35354)
T2 sequence (P35354 whole entry): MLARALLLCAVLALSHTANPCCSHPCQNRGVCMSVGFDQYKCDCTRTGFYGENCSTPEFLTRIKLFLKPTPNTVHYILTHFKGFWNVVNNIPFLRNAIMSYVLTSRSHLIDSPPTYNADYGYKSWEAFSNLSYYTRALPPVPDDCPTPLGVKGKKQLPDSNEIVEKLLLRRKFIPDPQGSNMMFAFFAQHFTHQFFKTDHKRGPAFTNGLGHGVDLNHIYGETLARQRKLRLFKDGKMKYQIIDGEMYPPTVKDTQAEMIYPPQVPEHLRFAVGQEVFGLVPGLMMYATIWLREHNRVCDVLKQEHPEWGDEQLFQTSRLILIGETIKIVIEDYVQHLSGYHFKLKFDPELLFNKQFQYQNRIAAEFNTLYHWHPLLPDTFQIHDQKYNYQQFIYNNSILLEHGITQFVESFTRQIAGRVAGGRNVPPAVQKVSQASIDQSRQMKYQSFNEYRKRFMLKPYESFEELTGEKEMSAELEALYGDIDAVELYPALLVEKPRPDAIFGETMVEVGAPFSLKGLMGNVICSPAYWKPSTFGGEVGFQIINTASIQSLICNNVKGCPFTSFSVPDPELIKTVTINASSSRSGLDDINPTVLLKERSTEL

| EC50 [1] | Kd [2] | IC50 [3] | SMILES |
| --- | --- | --- | --- |
| > 50 µM | > 100 µM | – | CC1=C(CC(=O)O)c2cc(F)ccc2/C1=C\c1ccc(Oc2ccccc2)cc1 |
| 5.3 µM | 2.46 µM | – | COc1cccc(/C=C2/C(C)=C(CC(=O)O)c3cc(F)ccc32)c1 |
| > 50 µM | > 100 µM | – | CC1=C(CC(=O)O)c2cc(F)ccc2/C1=C\c1ccc(OCc2ccccc2)cc1 |
| > 50 µM | > 100 µM | – | CC1=C(CC(=O)O)c2ccccc2/C1=C/c1cccc(C)c1 |
| > 50 µM | > 100 µM | – | CC1=C(CC(=O)O)c2ccccc2/C1=C\c1cccc(C)c1 |
| – | – | 286 µM | CC1=C(CC(=O)O)c2cc(F)ccc2/C1=C\c1cccc(OCc2ccccc2)c1 |
| > 50 µM | > 100 µM | – | CC1=C(CC(=O)O)c2cc(F)ccc2/C1=C\c1ccc(C(C)C)cc1 |
| 11.7 µM | 6.67 µM | – | CC1=C(CC(=O)O)c2cc(F)ccc2/C1=C\c1ccc(F)cc1 |
| 22.7 µM | > 100 µM | – | CC1=C(CC(=O)O)c2cc(F)ccc2/C1=C\c1ccc([S+](C)[O-])cc1 (configuration not stated) |
